Experimental findings from patent US20240067693A1, “POLYPEPTIDES AND USES THEREOF” (MEDIMMUNE LIMITED, priority 2020, published 2024) are described below.

Data set [1] in a line: Pharmacokinetic determination via IV and SC administration in Sprague Dawley rats. Particulars: male, rat, plasma, 20 nmol/kg.
Protocol: (§6) PK studies were performed to determine the half-life (T1/2) of test peptides. T1/2 describes the time taken for the maximum plasma concentration (Cmax) of a test substance to halve its steady-state concentration when in circulation.
(§7) Male SD rats were purchased from Si Bei Fu Laboratory Animal Technology Co. Ltd (China). The animals were 6-8 weeks old with body weights of 200-300 g on the dosing date. The animals were housed in a 12-hour light/12-hour dark cycle environment and were fasted overnight before dosing. The body weight of the animals were recorded before dosing, 24 h and 48 h post dosing . Animals had free access to food and drinks, and the food consumption was quantified every day.
(§8) Test articles were administered at 20 nmol/kg. Blood samples were collected from each animal via Jugular vein.
(§9) The blood samples were transferred into eppendorf low binding tube containing K2 EDTA. Above 0.150 mL blood were collected at each time point. Blood samples were centrifuged at 4,000 g for 5 minutes at 4° C. to obtain plasma. The plasma samples were stored frozen at −75±15° C. until analysis.
(§10) Concentrations of the test articles in the plasma samples were analyzed using a LC-MS/MS method. Data acquisition was performed by LabSolution version 5.89 software (Shimadzu, Kyoto, Japan). Data statistics were performed using Excel 97-2003 software. The pharmacokinetic parameters of test articles were calculated using a non-compartmental approach with Phoenix™ VVinNonlin® 6.1.
(§11) The following pharmacokinetic parameters were calculated, whenever possible from the plasma concentration versus time data: • IV administration: T1/2, C0, AUClast, AUCinf, MRTinf, Cl, Vss, Number of Points for Regression. • SC administration: Tmax, Cmax, AUClast, AUCinf, MRTinf, F, Number of Points for Regression.
Data set [2] deals with T1, rat calcitonin receptor (rat CTR) (Rattus norvegicus, UniProt P32214).
T1 construct: expressed in transfected cells
T1 sequence (P32214 25-516): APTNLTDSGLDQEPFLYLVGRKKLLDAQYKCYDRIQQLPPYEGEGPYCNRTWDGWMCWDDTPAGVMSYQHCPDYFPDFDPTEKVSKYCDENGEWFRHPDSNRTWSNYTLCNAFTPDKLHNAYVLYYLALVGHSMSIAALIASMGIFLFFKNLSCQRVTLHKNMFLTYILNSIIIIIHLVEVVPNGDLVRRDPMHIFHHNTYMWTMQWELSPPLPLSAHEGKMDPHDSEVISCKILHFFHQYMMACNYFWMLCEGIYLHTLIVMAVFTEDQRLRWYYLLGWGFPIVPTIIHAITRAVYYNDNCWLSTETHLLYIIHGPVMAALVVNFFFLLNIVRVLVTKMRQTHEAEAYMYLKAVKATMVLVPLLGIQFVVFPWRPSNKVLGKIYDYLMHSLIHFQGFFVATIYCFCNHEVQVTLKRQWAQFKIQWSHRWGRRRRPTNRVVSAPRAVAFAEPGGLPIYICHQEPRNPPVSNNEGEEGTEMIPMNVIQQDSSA
The data set can be described thus: cAMP production in HEK cells with stable recombinant expression of rat calcitonin receptor (rat CTR). The data set is classed as cell-based. Conditions: assay buffer with 0.1% BSA. The method, then: (§1) The functional activities of lipidated pramlintide analogue peptides, such as cAMP production, were tested in 1321N1 cell line with stable recombinant expression of human calcitonin receptor (hCTR) or human amylin receptor (calcitonin receptor co-expressed with receptor activity modifying protein, RAMP3) (hAMYR3) or HEK cells with stable recombinant expression of rat calcitonin receptor (rat CTR) or rat amylin receptor (calcitonin receptor co-expressed with receptor activity modifying protein, RAMP3) (Rat AMYR3).
(§2) Cryopreserved cell stock was thawed rapidly in a water-bath, suspended in assay buffer (0.1% BSA (Sigma # A3059) in HBSS (Sigma # H8264) with 25 mM HEPES, pH 7.4 and containing 0.5 mM IB MX (Sigma# 17018)) and spun at 240×g for 5 minutes. Cells were re-suspended in assay buffer at a batch-dependent optimized concentration (e.g. hCTR cells at 0.125×10^5 cells/mL, hAMYR3 cells at 0.125×10^5 cells/mL, rat CTR cells at 1x10^5 cells/mL, rat AMYR3 at 2×10^5 cells/mL).
(§3) The test peptide stock was prepared in DMSO and diluted in assay buffer to reach stated concentrations and transferred in duplicates into a 384-black shallow well microtitre assay plate (Corning # 3676). Cells were added to the assay plate, incubated at room temperature for 30 minutes and the cAMP level measured using cAMP dynamic 2 HTRF kit (Cisbio, Cat # 62AM4PEJ), following the two step protocol as per manufacturer's recommendations. The plates were read on an Envision (Perkin Elmer) using excitation wavelength of 320 nm and emission wavelengths of 620nm & 665 nm.
(§4) Data was transformed to % Delta F as described in the manufacturer's guidelines and analyzed as percent activation of maximal amylin or calcitonin effect by 4-parameter logistic fit to determine EC50 values. The selectivity of a peptide to hAMYR vs hCTR is defined as a ratio of EC50 values at the two receptors.

For data set [3], the target named is T2, rat amylin receptor (calcitonin receptor co-expressed with receptor activity modifying protein, RAMP3) (Rat AMYR3) (Rattus norvegicus, UniProt P32214+Q9JJ73).
T2 construct: expressed in transfected cells
T2 sequence (P32214 25-516): T1 sequence (P32214 25-516)
T2 sequence (Q9JJ73 23-147 partner): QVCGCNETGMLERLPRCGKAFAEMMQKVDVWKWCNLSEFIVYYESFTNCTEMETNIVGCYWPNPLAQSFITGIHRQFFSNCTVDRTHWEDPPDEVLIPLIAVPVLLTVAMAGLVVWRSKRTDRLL
In words: cAMP production in HEK cells with stable recombinant expression of rat amylin receptor (Rat AMYR3). Conditions: assay buffer with 0.1% BSA. The data set is classed as cell-based. Here is the method: as §1, §2, §3, §4

Data set [4] relates to lean rats. The data set can be described thus: Rat acute food intake study. The class given is in vivo. Conditions: lean male Sprague Dawley rats, 20 nmol/kg subcutaneously. Here is the method:
Male Sprague Dawley rats were obtained from Taconic Denmark, ApS at approximately 7 weeks of age. Rats were implanted with a microchip for identification, housed 4/cage with enrichment, free access to food and water, and allowed one week acclimatisation while non-invasive characterization was performed. Rats were on a 12:12 light:dark cycle that switches at 1pm:1am. Food intake was monitored via the HM2 system (Lafayette Instrument) that allows for monitoring in a home cage. As each rat enters an access tunnel to feed, an IR beam is broken, and the implanted microchip is read. Resulting changes to food weight is then assigned to the specific animal. Social order has shown no impact to overall feeding patterns and amounts.
Rats were sorted into groups based on Day -1 body weight and 24-hour accumulated food intake (n=7 per group). On Day 0 rats were weighed, then fasted for 6 hours. Thirty (30) minutes prior to the reintroduction of food, rats were dosed subcutaneously (5 mL/kg) with 20 nmol/kg of test compound or 60 nmol/kg peptide 1 (pramlintide) diluted in an appropriate vehicle, after which food was returned, and lights went out. Automated food intake was monitored for the following 3 days, and rats were weighed once per day.
Food intake per rat was batched into 1-hour intervals and integrated into Gubra's GubraView data management system. Discrete food intake data was exported into MS Excel from which cumulative food intake data was generated. Cumulative food intake data was then transposed into GraphPad Prism (v8.0.1) for analysis of dark period feeding

Data set [5] concerns the target T3, human calcitonin receptor (hCTR) (Homo sapiens, UniProt P30988).
T3 construct: expressed in transfected cells
T3 sequence (P30988 25-474): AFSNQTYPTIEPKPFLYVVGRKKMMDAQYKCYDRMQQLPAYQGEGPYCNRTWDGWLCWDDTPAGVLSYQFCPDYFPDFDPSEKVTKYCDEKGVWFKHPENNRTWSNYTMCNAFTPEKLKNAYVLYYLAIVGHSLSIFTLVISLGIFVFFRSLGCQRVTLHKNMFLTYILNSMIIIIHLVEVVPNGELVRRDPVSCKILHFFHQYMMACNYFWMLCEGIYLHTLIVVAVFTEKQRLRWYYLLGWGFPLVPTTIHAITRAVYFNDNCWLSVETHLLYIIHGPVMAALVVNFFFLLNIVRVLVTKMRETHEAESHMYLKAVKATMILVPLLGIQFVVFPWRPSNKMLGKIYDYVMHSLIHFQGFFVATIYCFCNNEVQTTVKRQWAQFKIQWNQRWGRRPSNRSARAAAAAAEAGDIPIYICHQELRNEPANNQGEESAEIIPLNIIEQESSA
The data set can be described thus: cAMP production in 1321N1 cells with stable recombinant expression of human calcitonin receptor (hCTR). The data set is classed as cell-based. Conditions: cAMP, 1321N1 cells, assay buffer with 0.1% BSA; read-out: EC50 (pM) hCTR. The procedure, abridged:
(§5)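 EC50 values come from 4-parameter logistic fits of HTRF cAMP signal, normalised to maximal calcitonin or amylin effect. Peptides were tested in duplicate for 30 min at RT in IBMX-containing (0.5 mM) BSA/HEPES buffer pH 7.4 on stable 1321N1 (human CTR, AMYR3) or HEK (rat CTR, AMYR3) lines.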
(cAMP levels reflect the balance of adenylyl cyclase and phosphodiesterase activity.)

Data set [6] addresses T4, human amylin receptor (calcitonin receptor co-expressed with receptor activity modifying protein, RAMP3) (hAMYR3) (Homo sapiens, UniProt O60896+P30988).
T4 construct: expressed in transfected cells
T4 sequence (P30988 25-474): T3 sequence (P30988 25-474)
T4 sequence (O60896 24-148 partner): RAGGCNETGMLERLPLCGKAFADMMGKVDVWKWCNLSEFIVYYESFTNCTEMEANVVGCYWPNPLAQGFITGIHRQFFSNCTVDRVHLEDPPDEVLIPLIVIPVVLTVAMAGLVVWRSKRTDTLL
The data set can be described thus: cAMP production in 1321N1 cells with stable recombinant expression of human amylin receptor (hAMYR3). Particulars: for Ratio (selectivity hAMYR vs hCTR, ratio of EC50 values at the two receptors): EC50 hCTR / EC50 hAMYR3; for EC50: cAMP, 1321N1 cells, assay buffer with 0.1% BSA, read-out: EC50 (pM) hAMYR3. The class given is cell-based. In short, it runs like this:
as §5

Data set [7] is described as follows: in vivo. Particulars: male, Sprague-Dawley, rat, 20 nmol/kg.
Protocol: as §6, §7, §8, §9, §10, §11

Molecules are shown by their SMILES. Numbered stars: 1 amine (or outer) side, 2 acyl side, 3 side chain; on linkers, the order of the positions; unused ones are H or OH. Bridge positions count the residues as written; N and C are the ends. Square brackets hold non-standard residues; d marks the D form. Side chains are listed from the residue outwards. Peptide text beside a SMILES is read from it. * marks the point of attachment. C18 diacid = O=C(O)CCCCCCCCCCCCCCCCC(=O)*; γGlu = O=C(O)[C@H](CCC(=O)[*:2])N[*:1]; Aib = CC(C)(N)C(=O)O

One may read the half-life as the time needed for the level to fall by half in the phase considered. Low readings indicate rapid decline, high ones slow decline. The term EC50 denotes the concentration that produces a half-maximal response. Turning to `CC[C@H](C)[C@H](NC(=O)[C@@H]1CCCN1C(=O)CNC(=O)[C@H](Cc1ccccc1)NC(=O)[C@H](CC(N)=O)NC(=O)[C@H](CC(N)=O)NC(=O)[C@H](CO)NC(=O)[C@H](CO)NC(=O)[C@H](Cc1c[nH]cn1)NC(=O)C(C)(C)NC(=O)[C@H](CC(C)C)NC(=O)[C@H](Cc1ccccc1)NC(=O)[C@H](CC(N)=O)NC(=O)[C@H](C)NC(=O)[C@H](CC(C)C)NC(=O)[C@H](CCCNC(=N)N)NC(=O)[C@H](CCC(N)=O)NC(=O)[C@@H](NC(=O)[C@H](C)NC(=O)[C@@H]1CSSC[C@H](NC(=O)[C@H](CCCCN)NC(=O)[C@@H](N)CCCCNC(=O)CC[C@H](NC(=O)CCCCCCCCCCCCCCCCC(=O)O)C(=O)O)C(=O)N[C@@H](CC(N)=O)C(=O)N[C@@H]([C@@H](C)O)C(=O)N[C@@H](C)C(=O)N[C@@H]([C@@H](C)O)C(=O)N1)[C@@H](C)O)C(=O)N[C@@H](CC(C)C)C(=O)N1CCC[C@H]1C(=O)N1CCC[C@H]1C(=O)N[C@H](C(=O)N[C@@H](CCC(=O)O)C(=O)N[C@H](C(=O)NCC(=O)N[C@@H](CO)C(=O)N[C@@H](CC(N)=O)C(=O)N[C@H](C(=O)N[C@@H](Cc1ccc(O)cc1)C(N)=O)[C@@H](C)O)C(C)C)[C@@H](C)O` [Peptide 140] (H-K([γGlu-C18 diacid])KCNTATCATQRLANFL[Aib]HSSNNFGPILPPTEVGSNTY-NH2; disulfide 3-8; N-terminus assumed), the half-life in data set [1] (iv) is 10.6 h; in data set [1] (sc) it was 12.9 h. Besides, the EC50 in data set [2] amounted to 1220 pM; in data set [3] it was 19.5 pM; in data set [5], 6050 pM; in data set [6], 656 pM. Besides, the “Cummulative food intake (% vehicle treated intake) At 12 h” value in data set [4] is reported as 62.4 % vehicle treated intake. The “Cummulative food intake (% vehicle treated intake) At 24 h” value in data set [4] worked out at 54.4 % vehicle treated intake. Moreover, the “Cummulative food intake (% vehicle treated intake) At 48 h” value in data set [4] amounted to 56.5 % vehicle treated intake. In addition, in data set [6], the “Ratio (selectivity hAMYR vs hCTR, ratio of EC50 values at the two receptors)” value is listed as 9.2.
Turning to `CC[C@H](C)[C@H](NC(=O)[C@@H]1CCCN1C(=O)CNC(=O)[C@H](Cc1ccccc1)NC(=O)[C@H](CC(N)=O)NC(=O)C(C)(C)NC(=O)[C@H](CO)NC(=O)[C@H](CO)NC(=O)[C@H](Cc1c[nH]cn1)NC(=O)[C@@H](NC(=O)[C@H](CC(C)C)NC(=O)[C@H](Cc1ccccc1)NC(=O)[C@H](CC(N)=O)NC(=O)[C@H](C)NC(=O)[C@H](CC(C)C)NC(=O)[C@H](CCCNC(=N)N)NC(=O)[C@H](CCC(N)=O)NC(=O)[C@@H](NC(=O)[C@H](C)NC(=O)[C@@H]1CSSC[C@H](NC(=O)[C@H](CCCCN)NC(=O)[C@@H](N)CCCCNC(=O)CC[C@H](NC(=O)CCCCCCCCCCCCCCCCC(=O)O)C(=O)O)C(=O)N[C@@H](CC(N)=O)C(=O)N[C@@H]([C@@H](C)O)C(=O)N[C@@H](C)C(=O)N[C@@H]([C@@H](C)O)C(=O)N1)[C@@H](C)O)C(C)C)C(=O)N[C@@H](CC(C)C)C(=O)N1CCC[C@H]1C(=O)N1CCC[C@H]1C(=O)N[C@H](C(=O)N[C@@H](CCC(=O)O)C(=O)N[C@H](C(=O)NCC(=O)N[C@@H](CO)C(=O)N[C@@H](CC(N)=O)C(=O)N[C@H](C(=O)N[C@@H](Cc1ccc(O)cc1)C(N)=O)[C@@H](C)O)C(C)C)[C@@H](C)O` [Peptide 41, K(γE-C18diacid)K[CNTATC]ATQRLANFLVHSS(Aib)NFGPILPPTEVGSNTY-amide] (H-K([γGlu-C18 diacid])KCNTATCATQRLANFLVHSS[Aib]NFGPILPPTEVGSNTY-NH2; disulfide 3-8; N-terminus assumed), the EC50 was 925 pM in data set [2], 8.2 pM in data set [3], 1180 pM in data set [5] and 178 pM in data set [6]. Further, the “Cummulative food intake (% vehicle treated intake) At 12 h” value in data set [4] is 44.6 % vehicle treated intake. In addition, in data set [4], the “Cummulative food intake (% vehicle treated intake) At 24 h” value is listed as 38.5 % vehicle treated intake. Further, the “Cummulative food intake (% vehicle treated intake) At 48 h” value in data set [4] is reported as 58.8 % vehicle treated intake. Moreover, the results for the half-life in data set [7] (iv) and in data set [7] (sc) were 8.3 h and 10.1 h, respectively. The “Ratio (selectivity hAMYR vs hCTR, ratio of EC50 values at the two receptors)” value in data set [6] came to 7.
